Data reported in patent publication US20240132463A1, “SUBSTITUTED N-(2-(2,6-DIOXOPIPERIDIN-3-YL)-1,3-DIOXOISOINDOLIN-5-YL)ARYLSULFONAMIDE ANALOGS AS MODULATORS OF CEREBLON PROTEIN” (ST. JUDE CHILDREN'S RESEARCH HOSPITAL, INC., priority 2020, published 2024).
Read-outs that look alike come from different tables or passages of the source.

Key:
[1] = system: CRBN knockout MV4-11 cells; assay: Cell viability in CRBN knockout MV4-11 cells; format: cell-based, human; conditions: CRBN knockout vs wild-type MV4-11 cells
Protocol: (§2) MV-4-11 cell line was purchased from the American Type Culture Collection (ATCC, Manassas, VA). The cells were cultured according to recommendations in IMDM cell culture media (ATCC). Exponentially growing MV-4-11 cells were plated at 1,000 cells per well in Corning 8804BC white 384-well assay plates and incubated overnight at 37° C. in a humidified 5% CO2 incubator. Compounds were transferred to the assay plate from a dose-response plate using a Pintool on a Biomek FXP Laboratory Automation Workstation (Beckman Coulter). Cytotoxicity was determined following 72 hours of incubation using Promega Cell Titer Glo reagent according to the manufacturer's recommendation. Luminescence was measured on an Envision plate reader (Perkin-Elmer).
CRBN-deficient MV4:11 cells were generated using CRISPR-Cas9 technology. […] Five days post nucleofection, cells were single-cell sorted by FACs to enrich for GFP+(transfected) cells, clonally selected, and verified for the desired targeted modification via targeted deep sequencing using gene specific primers with partial Illumina adapter overhangs (hCRBN.F—5′-[sequence]-3′ (SEQID: 6) and hCRBN.R—5′-[sequence]-3′, (SEQID: 7); overhangs not shown) and analyzed using CRIS.py (Ref. 36).

MDCKII-MDR1 cells = assay: MDCKII-MDR1 permeability assay; format: in vitro ADME; conditions: permeability in MDCK-MDR1 cells
Protocol: High throughput […]1 permeability was performed in the Transwell® 0.4 μm polycarbonate membrane 96-well system with modified methods (Refs. 38-39). […]1 cells were maintained at 37° C. in a humidified incubator with an atmosphere of 5% CO2. The cells were cultured in 75 cm^2 flasks with Dulbecco's Modified Eagle's Medium (DMEM) containing 10% fetal bovine serum (FBS), 1% non-essential amino acids (NEAA), 100 units/ml of penicillin, and 100 μg/ml of streptomycin. The […]1 cells were seeded onto inserts at a density of 2×10^4 and 1×10^4 cells/insert separately. The medium in the wells was exchanged each other day, and the trans epithelial electrical resistance (TEER) value was measured using an epithelial volt-ohm meter (Millipore, Billerica, Massachusetts). […] For transport experiments, each cultured monolayer on the 96-well plate was washed twice with a transport buffer (HBSS/25 mM HEPES, pH 7.4). The permeability assay was initiated by the addition of each compound solution (10 μmol/L) into inserts (apical side, A) or receivers (basolateral side, B). The MDCKII-MDR1 cell monolayers were incubated for 1 hour at 37° C. Fractions were collected from receivers (if apical to basal permeability) or inserts (if basal to apical permeability), and concentrations were assessed by UPLC/MS (Waters; Milford, MA). All compounds were tested in triplicates. The A→B (or B→A) apparent permeability coefficients (Papp) of each compound were calculated using the equation, Papp=dQ/dt×1/AC0, where dQ/dt equals the flux of a drug across the monolayer, A equals the total insert well surface area, and C0 is the initial concentration of substrate in the donor compartment. The efflux ratio was determined by dividing the Papp in the B-A direction by the Papp in the A-B direction.

MV4-11 cells [2] = assay: Lenalidomide competition assay; format: cell-based, human; conditions: co-treatment with lenalidomide 10 μM, 72 h
Protocol: (§3) Compounds were screened in human cancer cell lines and each cell line was cultured in the complete medium recommended by the vendor and seeded in Corning 8804BC white 384-well assay plates at density of 1,000, 1,000, 1,000, 1,500 and 7,500 cells per well, for MV4-11, HD-MB03, MB004, MB002 and MHH-CALL4 cells respectively. After overnight incubation at 37° C. in a humidified 5% CO2 incubator, cells were treated with compounds in dose-response format using a Pintool on a Biomek FXP Laboratory Automation Workstation (Beckman Coulter). […] After 72 h incubation, cell proliferation was assessed using Cell Titer-Glo (CTG) luminescent cell viability assay (Promega) according to the manufacturer's instruction. Luminescence signal was measured using an Envision plate reader (Perkin-Elmer).

GSPT1 = GSPT1 (Homo sapiens (Human), UniProt P15170+Q96SW2); assay: GSPT1 degradation by immunoblot in MV4-11 cells; format: cell-based
GSPT1, sequence (P15170 whole entry): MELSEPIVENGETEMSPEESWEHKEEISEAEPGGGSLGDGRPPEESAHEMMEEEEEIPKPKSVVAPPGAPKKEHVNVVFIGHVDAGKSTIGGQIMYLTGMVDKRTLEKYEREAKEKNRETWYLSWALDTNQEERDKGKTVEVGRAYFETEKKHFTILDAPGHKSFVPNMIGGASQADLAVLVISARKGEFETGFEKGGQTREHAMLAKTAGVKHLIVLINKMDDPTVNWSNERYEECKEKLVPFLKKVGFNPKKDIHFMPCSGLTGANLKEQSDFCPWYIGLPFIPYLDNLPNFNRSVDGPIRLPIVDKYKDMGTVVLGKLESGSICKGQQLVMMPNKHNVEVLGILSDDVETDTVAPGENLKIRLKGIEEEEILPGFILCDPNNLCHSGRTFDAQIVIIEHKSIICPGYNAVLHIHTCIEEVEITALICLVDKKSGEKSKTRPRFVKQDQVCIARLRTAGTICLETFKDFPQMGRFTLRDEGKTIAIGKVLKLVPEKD
GSPT1, sequence (Q96SW2 whole entry): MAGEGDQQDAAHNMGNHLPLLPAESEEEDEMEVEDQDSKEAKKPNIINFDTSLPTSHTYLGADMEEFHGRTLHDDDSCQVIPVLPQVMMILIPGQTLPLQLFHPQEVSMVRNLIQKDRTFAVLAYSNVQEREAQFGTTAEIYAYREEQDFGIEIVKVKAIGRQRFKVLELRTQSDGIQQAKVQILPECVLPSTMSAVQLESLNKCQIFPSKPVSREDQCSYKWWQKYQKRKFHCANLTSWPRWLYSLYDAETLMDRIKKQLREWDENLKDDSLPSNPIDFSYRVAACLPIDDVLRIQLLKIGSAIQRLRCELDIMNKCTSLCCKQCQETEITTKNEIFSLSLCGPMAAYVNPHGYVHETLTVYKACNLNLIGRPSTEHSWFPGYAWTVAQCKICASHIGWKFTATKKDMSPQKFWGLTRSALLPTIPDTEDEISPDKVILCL
GSPT1, sequence (Q16531 whole entry partner): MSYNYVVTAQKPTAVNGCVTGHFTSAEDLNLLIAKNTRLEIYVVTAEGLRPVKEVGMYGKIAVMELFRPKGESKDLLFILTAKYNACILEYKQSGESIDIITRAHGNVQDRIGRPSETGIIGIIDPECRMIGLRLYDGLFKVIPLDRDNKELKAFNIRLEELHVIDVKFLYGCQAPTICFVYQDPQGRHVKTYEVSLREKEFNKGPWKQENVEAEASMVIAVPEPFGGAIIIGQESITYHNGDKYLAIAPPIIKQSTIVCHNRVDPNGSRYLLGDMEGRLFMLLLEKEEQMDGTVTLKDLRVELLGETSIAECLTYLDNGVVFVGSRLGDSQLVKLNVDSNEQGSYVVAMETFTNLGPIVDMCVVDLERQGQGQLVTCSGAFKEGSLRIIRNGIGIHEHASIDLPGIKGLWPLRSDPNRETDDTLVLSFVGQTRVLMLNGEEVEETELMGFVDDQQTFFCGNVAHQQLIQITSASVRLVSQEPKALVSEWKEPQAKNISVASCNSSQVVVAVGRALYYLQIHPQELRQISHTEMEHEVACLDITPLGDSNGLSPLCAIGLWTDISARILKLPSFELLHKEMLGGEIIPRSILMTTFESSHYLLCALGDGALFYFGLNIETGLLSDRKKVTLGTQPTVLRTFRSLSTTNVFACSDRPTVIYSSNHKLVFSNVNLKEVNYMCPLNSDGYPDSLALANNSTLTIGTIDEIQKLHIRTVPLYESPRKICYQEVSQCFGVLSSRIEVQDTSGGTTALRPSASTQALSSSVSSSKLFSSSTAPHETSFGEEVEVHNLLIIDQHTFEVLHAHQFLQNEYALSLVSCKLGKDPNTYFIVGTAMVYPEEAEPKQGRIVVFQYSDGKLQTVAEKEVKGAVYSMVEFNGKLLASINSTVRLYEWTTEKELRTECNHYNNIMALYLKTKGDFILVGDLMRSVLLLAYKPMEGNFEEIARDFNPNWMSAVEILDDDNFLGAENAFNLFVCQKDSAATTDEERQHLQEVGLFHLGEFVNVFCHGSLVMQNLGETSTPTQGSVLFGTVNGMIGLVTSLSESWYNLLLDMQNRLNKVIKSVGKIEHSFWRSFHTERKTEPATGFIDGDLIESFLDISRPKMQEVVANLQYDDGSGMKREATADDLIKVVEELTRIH
Protocol: (§1) MV4-11 cells were seeded in 6-well plates (1×10^6 cells per well). After overnight incubation, the cells were treated with indicated concentrations for specific timepoints. […] After blocking the membrane with LI-COR TBS blocking buffer and incubation in primary antibody overnight, the corresponding protein signals were detected using IRDye secondary antibodies and Odyssey Imaging System. Image Studio Lite Ver 5.2 was used for blot quantification. […] IRDye® 800CW Goat anti-Mouse IgG Secondary Antibody and IRDye® 68ORD Goat anti-Rabbit IgG Secondary Antibody were used as secondary antibodies.

caspase 3/7 = assay: Caspase 3/7 activity assay; format: cell-based, human; conditions: MV4-11 cells, Caspase-Glo, 4, 8 and 24 hours, 10 and 100 nM
Aqueous solubility assay = format: physicochemical; conditions: aqueous solubility at pH = 7.4, triplicate
Protocol: Solubility assays were carried out on a Biomek FX lab automation workstation (Beckman Coulter, Inc., Fullerton, CA) using μSOL Evolution software (pION Inc., Woburn, MA). 10 μL of 10 mM compound stock (in DMSO) was added to 190 μL 1-propanol to make a reference stock plate. 5 μL from this reference stock plate were mixed with 70 μL 1-propanol and 75 μL citrate phosphate-buffered saline (PBS;isotonic) to make the reference plate, and the UV spectrum (250-500 nm) of the reference plate was read. 6 μL of 10 mM test compound stock was added to 594 μL buffer in a 96-well storage plate and mixed. The storage plate was sealed and incubated at RT for 18 h. The suspension was then filtered through a 96-well filter plate (pION Inc., Woburn, MA). 75 μL of filtrate was mixed with 75 μL 1-propanol to make the sample plate, and the UV spectrum of the sample plate was read. Calculations were carried out with μSOL Evolution software based on the area under the curve (AUC) of the UV spectrum of the sample and reference plates. All compounds were tested in triplicate.

IKZF1 = IKZF1 (Homo sapiens (Human), UniProt Q13422+Q96SW2); assay: IKZF1 degradation by immunoblot in MV4-11 cells; format: cell-based; conditions: for DC50: read-out: IKZF1 DC50, 24 h treatment
Protocol: as §1

GSPT1 HiBiT tag protein = GSPT1 HiBiT tag protein (Homo sapiens (Human), UniProt P15170+Q96SW2); assay: hGSPT1 HiBiT assay; format: cell-based
GSPT1 HiBiT tag protein, sequence (P15170 whole entry): as the sequence (P15170 whole entry) above
GSPT1 HiBiT tag protein, sequence (Q96SW2 whole entry): as the sequence (Q96SW2 whole entry) above
GSPT1 HiBiT tag protein, sequence (Q16531 whole entry partner): as the sequence (Q16531 whole entry partner) above
Protocol: hGSPT1 HiBiT cell line. HEK293_hGSPT1_HiBiT tagged cells were generated using CRISPR-Cas12a technology. Briefly, ˜400,000 HEK293 cells were transiently co-transfecting with precomplexed ribonuclear proteins (RNPs) consisting of […] of crRNA (IDT), 62 pmol of Cas12a protein (IDT), 3 ug of ssODN donor (IDT; AltR™ modifications), 78 pmol of electroporation enhancer (IDT), and 200 ng of pMaxGFP (Lonza). The transfection was performed via nucleofection (Lonza, 4D-Nucleofector™ X-unit) using solution P3 and program CM-130 in a small (20 ul) cuvette according to the manufacturer's recommended protocol. Five days post-nucleofection, cells were single cell sorted for GFP+(transfected) cells by FACs in 96-well plates and clonally selected. Clones were screened and verified for the desired modification via targeted deep sequencing using gene specific primers with partial Illumina adapter overhangs as previously described.^58 In brief, clonal cell pellets were harvested, lysed and used to generate gene specific amplicons with partial Illumina adapters in PCR #1. Amplicons were indexed in PCR #2 and pooled with other targeted amplicons for other loci to create sequence diversity. Additionally, 10% PhiX Sequencing Control V3 (Illumina) was added to the pooled amplicon library prior to running the sample on an Miseq Sequencer System (Illumina) to generate paired 2×250 bp reads. […] Editing construct sequences and screening primers are listed below in Table 4.
hGSPT1 HiBiT assay. […] After 4 hrs incubation, the level of GSPT1 HiBiT tag protein was evaluated using Nano-Glo® HiBiT Lytic Detection System (Promega) according to the manufacturer's instruction.

6×His-CRBN-DDB1 protein = 6×His-CRBN-DDB1 protein (Homo sapiens (Human), UniProt Q96SW2); assay: CRBN fluorescence polarization assay; format: binding
6×His-CRBN-DDB1 protein, sequence (Q96SW2 whole entry): as the sequence (Q96SW2 whole entry) above
6×His-CRBN-DDB1 protein, sequence (Q16531 whole entry partner): as the sequence (Q16531 whole entry partner) above
Protocol: 6×His-CRBN-DDB1 protein (200 nM) and Cy5-O-Len probe (30 nM) were combined in 20 mM HEPES pH 7, 150 mM NaCl, 0.005% Tween-20 assay buffer. […] The plates were incubated in the dark for 1 hour at room temperature and then read on an Envision plate reader (PerkinElmer, Massachusetts, USA).

human cancer cell lines = assay: Cell proliferation in human cancer cell lines; format: cell-based; conditions: data not shown
MV4-11 cells [3] = assay: MV-4-11 cell viability assay; format: cell-based, human; conditions: 72 hours, Cell Titer Glo
Protocol: as §2, §3

cells = conditions: Ref. 13; cited from earlier work
[4] = fluorescence polarization, Cy5-O-Len probe, read-out: CRBN IC50
[5] = read-out: GSPT1 HiBit EC50; HEK293 hGSPT1 HiBiT cells, 4 hrs incubation
[6] = CRBN FP IC50, cereblon binding, class symbols

For `Cc1c(Cl)cccc1S(=O)(=O)Nc1ccc2c(c1)C(=O)N(C1CCC(=O)NC1=O)C2=O` (stereo not drawn) [Compound 5, 3-chloro-N-(2-(2,6-dioxopiperidin-3-yl)-1,3-dioxoisoindolin-5-yl)-2-methylbenzenesulfonamide], which “antiproliferative activity in absence of CRBN” value [1] is on record?
Its value is “abolished”.

And the Papp (MDCKII-MDR1 cells)?
The Papp was 36 nm/s.

And the “antiproliferative effect in presence of lenalidomide” value (MV4-11 cells [2])?
Its value is “abrogating the antiproliferative effects”.

What about the GSPT1 protein degradation (GSPT1; MV4-11 cells, 24 hours, at 100 nM) of the same molecule?
The GSPT1 protein degradation was 90%.

And the caspase activation (caspase 3/7)?
Its caspase activation is “only observed at the 24 hour time point”.

And the Sol. (Aqueous solubility assay)?
Its Sol. is 64 µM.

And the “IKZF1 degradation at 4 hours” value (IKZF1; MV4-11 cells, 4 hours, any concentration tested)?
The value was “did not significantly degrade IKZF1”.

With `Cc1ccc(S(=O)(=O)Nc2ccc3c(c2)C(=O)N(C2CCC(=O)NC2=O)C3=O)cc1Cl` (stereo not drawn) [Compound 7, 3-chloro-N-(2-(2,6-dioxopiperidin-3-yl)-1,3-dioxoisoindolin-5-yl)-4-methylbenzenesulfonamide] as the molecule, how does the DC50 (GSPT1 HiBiT tag protein; HEK293 hGSPT1 HiBiT cells, 4 hrs incubation; read-out: GSPT1 HiBit EC50) read?
The DC50 was over 10 µM.

What about the IC50 (6×His-CRBN-DDB1 protein; cereblon binding, class symbols, read-out: CRBN FP IC50) of the same molecule?
Its IC50 is under 1000 nM.

What about the IC50 (6×His-CRBN-DDB1 protein; [4]) of the same molecule?
The IC50 was 13 nM.

What about the Papp (MDCKII-MDR1 cells) of the same molecule?
The Papp was 46 nm/s.

For `Cc1ccc(NC(=O)NCc2ccc3c(c2)CN(C2CCC(=O)NC2=O)C3=O)cc1Cl` (stereo not drawn) [CC-885, N-(3-chloro-4-methylphenyl)-N′-[[2-(2,6-dioxo-3-piperidinyl)-2,3-dihydro-1-oxo-1H-isoindol-5-yl]methyl]-urea], which “antiproliferative effects in cell lines” value (human cancer cell lines) is on record?
The value was “displayed antiproliferative effects in all four cell lines”.

Which Papp (MDCKII-MDR1 cells) does the source give for `O=C1CCC(N2Cc3cc(CNC(=O)C(F)(F)c4ccc(Cl)cc4)ccc3C2=O)C(=O)N1` (stereo not drawn) [CC-90009, 2-(4-chlorophenyl)-N-((2-(2,6-dioxopiperidin-3-yl)-1-oxoisoindolin-5-yl)methyl)-2,2-difluoroacetamide, reference compound] here?
The Papp was 49 nm/s.

What about the EC50 (MV4-11 cells [3]; Homo sapiens) of the same molecule?
Its EC50 is 62 nM.

What about the Sol. (Aqueous solubility assay) of the same molecule?
Its Sol. is 77 µM.

What about the Dmax at 10 µM (IKZF1; MV4-11 cells, 4 hours, at 10 μM) of the same molecule?
The Dmax at 10 µM was 55%.

And the DC50 (IKZF1; MV4-11 cells)?
The DC50 was 10 nM.

And the DC50 (IKZF1; MV4-11 cells, listed as CC90009)?
Its DC50 is 9.9 nM.

For `O=C1CCC(N2C(=O)c3ccc(NS(=O)(=O)c4ccccc4)cc3C2=O)C(=O)N1` (stereo not drawn) [Compound 20, N-(2-(2,6-dioxopiperidin-3-yl)-1,3-dioxoisoindolin-5-yl)benzenesulfonamide], which DC50 (GSPT1 HiBiT tag protein; [5]) is on record?
Its DC50 is over 10 µM.

And the IC50 (6×His-CRBN-DDB1 protein; [6])?
Its IC50 is under 1000 nM.

And the IC50 (6×His-CRBN-DDB1 protein; [4])?
The IC50 was 72 nM.

And the Papp (MDCKII-MDR1 cells)?
The Papp was 36 nm/s.

And the “MV4-11 EC50” value (MV4-11 cells [3])?
The value was “inactive”.

And the Sol. (Aqueous solubility assay)?
The Sol. was 71 µM.

For `O=C1CC[C@H](N2Cc3c(OCc4ccc(CN5CCOCC5)cc4)cccc3C2=O)C(=O)N1` [CC-220, (S)-3-(4-((4-(morpholinomethyl)benzyl)oxy)-1-oxoisoindolin-2-yl)piperidine-2,6-dione], which “potency in cells relative to lenalidomide” value (cells) is on record?
The value was 10 fold.

For `O=C1CCC(N2C(=O)c3ccc(NS(=O)(=O)c4cccc(OC(F)(F)F)c4)cc3C2=O)C(=O)N1` (stereo not drawn) [Compound 2, N-(2-(2,6-dioxopiperidin-3-yl)-1,3-dioxoisoindolin-5-yl)-3-(trifluoromethoxy)benzenesulfonamide], which DC50 (GSPT1 HiBiT tag protein; [5]) is on record?
The DC50 was over 10 µM.

What about the IC50 (6×His-CRBN-DDB1 protein; [6]) of the same molecule?
The IC50 was under 1000 nM.

And the IC50 (6×His-CRBN-DDB1 protein; CRBN IC50, fluorescence polarization, Cy5-O-Len probe)?
Its IC50 is 72 nM.

And the IC50 (6×His-CRBN-DDB1 protein; [4])?
The IC50 was 54 nM.

And the Papp (MDCKII-MDR1 cells)?
The Papp was 40 nm/s.

And the “MV4-11 EC50” value (MV4-11 cells [3])?
The value was “no activity”.

What about the “effect on protein levels of GSPT1 by immunoblotting” value (GSPT1; MV4-11 cells (FIG. 6)) of the same molecule?
The value was “no effects”.

What about the “selectivity window GSPT1 over IKZF1 (DC50)” value (GSPT1; MV4-11 cells, DC50 values at 24 hours) of the same molecule?
Its value is 30 fold.

What about the Sol. (Aqueous solubility assay) of the same molecule?
Its Sol. is 64 µM.

What about the “effect on protein levels of IKZF1 by immunoblotting” value (IKZF1; MV4-11 cells (FIG. 6)) of the same molecule?
The value was “no effects”.

What about the IKZF1 protein abundance (IKZF1; MV4-11 cells, treatment over 24 hours) of the same molecule?
The IKZF1 protein abundance was “dose-dependent decrease”.
